In PubChem BioAssay AID1963856 (Molecular Pharmacology Branch, DTP, NCI, 2024) one finds IC50 and viability, T/C data, which are given here for 5 molecules.

A word on the IC50: it is the concentration at which inhibition is half-maximal. By viability, T/C is commonly meant the ratio of treated to control.

This experiment concerns LG0567-F671-PDC KRAS tumor spheroid viability. Briefly: Anticancer human tumor LG0567-F671-PDC patient-derived lung adenocarcinoma cell line growth inhibition [KRAS2]. To be noted: spheroids with HUVEC and MSC; for viability, T/C: stronger effect = lower value. A digest of the protocol:
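KRAS-mutant tumor cells were grown as spheroids with HUVEC endothelial cells and human MSCs as stroma. Targeted agents were tested alone and with KRAS pathway inhibitors. Doses started at or near clinical Cmax, or 10 microM, descending half-log.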

[1] abbreviates: curve of first compound, second compound 0.1 µM.
Setting [2] is: curve of first compound, second compound 0.316 µM.
[3] abbreviates: curve of first compound, second compound 1 µM.
[4] abbreviates: curve of first compound, second compound 3.16 µM.
Where [5] appears, read: curve of first compound, second compound 10 µM.
Setting [6] is: second compound 0.1 µM, first compound 0.0316 µM.
The mark [7] stands for this setting: second compound 0.1 µM, first compound 0.1 µM.
Where [8] appears, read: second compound 0.316 µM, first compound 0.0316 µM.
[9] abbreviates: second compound 0.316 µM, first compound 0.1 µM.
Where [10] appears, read: second compound 1 µM, first compound 0.0316 µM.
Where [11] appears, read: second compound 1 µM, first compound 0.1 µM.
Setting [12] is: second compound 3.16 µM, first compound 0.0316 µM.
The mark [13] stands for this setting: second compound 3.16 µM, first compound 0.1 µM.
The mark [14] stands for this setting: second compound 10 µM, first compound 0.0316 µM.
[15] abbreviates: second compound 10 µM, first compound 0.1 µM.
Setting [16] is: second compound 0.1 µM, first compound 0.316 µM.
Setting [17] is: second compound 0.1 µM, first compound 1 µM.
Setting [18] is: second compound 0.1 µM, first compound 3.16 µM.
The mark [19] stands for this setting: second compound 0.1 µM, first compound 10 µM.
Where [20] appears, read: second compound 0.316 µM, first compound 0.316 µM.
Setting [21] is: second compound 0.316 µM, first compound 1 µM.
Where [22] appears, read: second compound 0.316 µM, first compound 3.16 µM.
Where [23] appears, read: second compound 0.316 µM, first compound 10 µM.
[24] abbreviates: second compound 1 µM, first compound 0.316 µM.
Where [25] appears, read: second compound 1 µM, first compound 1 µM.
Setting [26] is: second compound 1 µM, first compound 3.16 µM.
[27] abbreviates: second compound 1 µM, first compound 10 µM.
[28] abbreviates: second compound 3.16 µM, first compound 0.316 µM.
[29] abbreviates: second compound 3.16 µM, first compound 1 µM.
[30] abbreviates: second compound 3.16 µM, first compound 3.16 µM.
[31] abbreviates: second compound 3.16 µM, first compound 10 µM.
The mark [32] stands for this setting: second compound 10 µM, first compound 0.316 µM.
The mark [33] stands for this setting: second compound 10 µM, first compound 1 µM.
The mark [34] stands for this setting: second compound 10 µM, first compound 3.16 µM.
Setting [35] is: second compound 10 µM, first compound 10 µM.

A value given as a limit tells only on which side of the number the result lay.
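Also: drug exposure lasted seven days after spheroids formed for three days.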
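For viability, T/C in this document: 100% = DMSO vehicle control viability.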

With `Cn1ncnc1[C@H]1c2n[nH]c(=O)c3cc(F)cc(c23)N[C@@H]1c1ccc(F)cc1` + COc1cc2nc(C)nc(NC(C)c3cc(N)cc(C(F)(F)F)c3)c2cc1OC1CCOC1, the IC50 runs as follows: under setting [1], greater than 100 nM; under setting [2], greater than 100 nM; under setting [3], greater than 100 nM; under setting [4], greater than 100 nM; under setting [5], greater than 100 nM. The viability, T/C (second compound 0.1 µM, first compound 0.000316 µM) was 94.8%; the viability, T/C (second compound 0.1 µM, first compound 0.001 µM) is 78.3%; the viability, T/C (second compound 0.1 µM, first compound 0.00316 µM) is 74.8%; the viability, T/C (second compound 0.1 µM, first compound 0.01 µM) is 83.8%; the viability, T/C under setting [6] is 84.7%; the viability, T/C under setting [7] is 82.8%. In addition, the viability, T/C runs as follows: (second compound 0.316 µM, first compound 0.000316 µM) 77.6%; (second compound 0.316 µM, first compound 0.001 µM) 74.9%; (second compound 0.316 µM, first compound 0.00316 µM) 61.1%; (second compound 0.316 µM, first compound 0.01 µM) 66.3%; under setting [8], 81.4%; under setting [9], 75.9%. In addition, the viability, T/C is, setting by setting: (second compound 1 µM, first compound 0.000316 µM) 75.6%; (second compound 1 µM, first compound 0.001 µM) 63.6%; (second compound 1 µM, first compound 0.00316 µM) 58.6%; (second compound 1 µM, first compound 0.01 µM) 49.1%; under setting [10], 53.7%; under setting [11], 53.8%. In addition, the viability, T/C runs as follows: (second compound 3.16 µM, first compound 0.000316 µM) 69.1%; (second compound 3.16 µM, first compound 0.001 µM) 70%; (second compound 3.16 µM, first compound 0.00316 µM) 67.3%; (second compound 3.16 µM, first compound 0.01 µM) 56.9%; under setting [12], 53.6%; under setting [13], 51.9%. The viability, T/C (second compound 10 µM, first compound 0.000316 µM) was 61.3%; the viability, T/C (second compound 10 µM, first compound 0.001 µM) was 62.9%; the viability, T/C (second compound 10 µM, first compound 0.00316 µM) was 71.2%; the viability, T/C (second compound 10 µM, first compound 0.01 µM) was 54.4%; the viability, T/C under setting [14] is 51.7%; the viability, T/C under setting [15] was 53.6%.
As for `CC1(C)CCC(CN2CCN(c3ccc(C(=O)NS(=O)(=O)c4ccc(NCC5CCOCC5)c([N+](=O)[O-])c4)c(Oc4cnc5[nH]ccc5c4)c3)CC2)=C(c2ccc(Cl)cc2)C1` + C=CC(=O)N1CCN(c2nc(=O)n(-c3c(C)ccnc3C(C)C)c3nc(-c4c(O)cccc4F)c(F)cc23)C(C)C1, the IC50 under setting [1] was less than 31.6 nM; the IC50 under setting [2] was less than 31.6 nM; the IC50 under setting [3] is less than 31.6 nM; the IC50 under setting [4] was less than 31.6 nM; the IC50 under setting [5] was less than 31.6 nM. In addition, the viability, T/C is, setting by setting: under setting [6], 31.9%; under setting [7], 28.1%; under setting [16], 26.2%; under setting [17], 25.7%; under setting [18], 11.7%; under setting [19], 2.83%. Further, the viability, T/C is 27.2% under setting [8]; 28.8% under setting [9]; 25.4% under setting [20]; 23.1% under setting [21]; 16.5% under setting [22]; 6.09% under setting [23]. The viability, T/C runs as follows: under setting [10], 27.2%; under setting [11], 28.5%; under setting [24], 25.9%; under setting [25], 22.8%; under setting [26], 11.2%; under setting [27], 3.32%. Besides, the viability, T/C under setting [12] is 29%; the viability, T/C under setting [13] is 28.6%; the viability, T/C under setting [28] was 27.6%; the viability, T/C under setting [29] was 27.1%; the viability, T/C under setting [30] was 11.1%; the viability, T/C under setting [31] is 2.68%. For the same molecule, the viability, T/C is 25.8% under setting [14]; 26.3% under setting [15]; 24.9% under setting [32]; 25.6% under setting [33]; 5.1% under setting [34]; 6.11% under setting [35].
As to `COc1cc(Nc2ncc3c(n2)-c2ccc(Cl)cc2C(c2c(F)cccc2OC)=NC3)ccc1C(=O)O`, the viability, T/C is, setting by setting: (compound 0.0316 µM) 92.8% [middle of 5 runs]; (compound 0.316 µM) 74% [middle of 5 runs]; (compound 3.16 µM) 67.6% [middle of 5 runs]; (compound 10 µM) 48.9% [middle of 5 runs].
Take `Cn1nccc1Nc1nccc(-c2cc3c(s2)C(C)(C)N(CCN2CCOCC2)C3=O)n1` + C=CC(=O)N1CCN(c2nc(=O)n(-c3c(C)ccnc3C(C)C)c3nc(-c4c(O)cccc4F)c(F)cc23)C(C)C1: the 50% inhibitory concentration (IC50) reads like this: under setting [1], less than 31.6 nM; under setting [2], less than 31.6 nM; under setting [3], less than 31.6 nM; under setting [4], less than 31.6 nM; under setting [5], less than 31.6 nM. Further, the viability, T/C is, setting by setting: under setting [6], 21.2%; under setting [7], 23.1%; under setting [16], 19.2%; under setting [17], 20.8%; under setting [18], 14.1%; under setting [19], 16.3%. Further, the viability, T/C under setting [8] was 22.2%; the viability, T/C under setting [9] was 19.8%; the viability, T/C under setting [20] is 19.9%; the viability, T/C under setting [21] was 17.8%; the viability, T/C under setting [22] was 15.6%; the viability, T/C under setting [23] was 17.2%. In addition, the viability, T/C under setting [10] was 23.1%; the viability, T/C under setting [11] was 21.8%; the viability, T/C under setting [24] is 21%; the viability, T/C under setting [25] is 20.9%; the viability, T/C under setting [26] is 15%; the viability, T/C under setting [27] is 20.8%. The viability, T/C by setting is: under setting [12], 22.2%; under setting [13], 18.1%; under setting [28], 20.3%; under setting [29], 12.2%; under setting [30], 14%; under setting [31], 20.9%. The viability, T/C reads like this: under setting [14], 20.5%; under setting [15], 19.2%; under setting [32], 14.5%; under setting [33], 12.2%; under setting [34], 15.2%; under setting [35], 26.8%.
In the case of `COc1cc2nccc(Oc3ccc(NC(=O)C4(C(=O)Nc5ccc(F)cc5)CC4)cc3)c2cc1OC`, the viability, T/C by setting is: (compound 0.0316 µM) 92% [middle of 5 runs]; (compound 0.1 µM) 78.3% [middle of 5 runs]; (compound 0.316 µM) 75.1% [middle of 5 runs]; (compound 1 µM) 67% [middle of 5 runs]. The IC50 (curve of compound) is greater than 10000 nM.
